The subject of the experiment is C. albicans. In words: Broth microdilution assay of synergistic lethality with 4 μg/mL FLC (recovery on drug-free YPD). Format: cell-based, Candida albicans. On the technique in general: In broth dilution the organism is exposed to a series of concentrations in liquid medium.
Where [1] appears, read: concentration of the compound that is synergistically lethal with 4 μg/mL FLC, C. albicans, recovery on drug-free YPD.

SMILES strings stand for the structures. Where a name gives a salt, the structure may show the parent alone. Read-outs that look alike come from different tables or passages of the source.

Take `CN1CCC(=C2c3ccccc3C=Cc3ccccc32)CC1.CN1CCC(=C2c3ccccc3C=Cc3ccccc32)CC1.Cl.Cl.O.O.O`: the Synergistic lethal concentrations under setting [1] came out at 100 µM. In the case of `CC=CC(=O)N(CC)c1ccccc1C` (mixture of isomers) [Crotamiton], the Synergistic lethal concentrations under setting [1] is 100 µM. For `Cl.Cl.OCCN1CCN(CCC=C2c3ccccc3Sc3ccc(C(F)(F)F)cc32)CC1` (mixture of isomers) [Flupentixol dihydrochloride], the Synergistic lethal concentrations under setting [1] was 100 µM. Regarding `COC(=O)C1=C(C)NC(C)=C(C(=O)O[C@@H]2CCCN(Cc3ccccc3)C2)[C@@H]1c1cccc([N+](=O)[O-])c1.Cl` (racemic) [Benidipine (hydrochloride)], the Synergistic lethal concentrations under setting [1] is 100 µM.

Take `O=C(c1ccc(F)c(F)c1Nc1ccc(I)cc1F)N1CC(O)([C@@H]2CCCCN2)C1` (racemic) [Cobimetinib (racemate)]: the Synergistic lethal concentrations under setting [1] stood at 25 µM.

`Nc1c2ccccc2nc2ccccc12` [9-Aminoacridine]: the Synergistic lethal concentrations under setting [1] came to 100 µM. With `CN(C)C/C=C/C(=O)Nc1cc2c(Nc3ccc(F)c(Cl)c3)ncnc2cc1O[C@H]1CCOC1.O=C(O)/C=C\C(=O)O.O=C(O)/C=C\C(=O)O` [Afatinib (dimaleate)], the Synergistic lethal concentrations under setting [1] stood at 100 µM. The same measure, in the same setting: with `CN(C)C/C=C/C(=O)Nc1cc2c(Nc3ccc(F)c(Cl)c3)ncnc2cc1O[C@H]1CCOC1` [Afatinib] the figure was 100 µM; with `C=CC(=O)Nc1cc(Nc2nccc(-c3cn(C4CC4)c4ccccc34)n2)c(OC)cc1N(C)CCN(C)C.Cl` [Almonertinib (hydrochloride)], 12.5 µM; with `C=CC(=O)Nc1cc(Nc2nccc(-c3cn(C4CC4)c4ccccc34)n2)c(OC)cc1N(C)CCN(C)C` [Almonertinib], 25 µM.

Consider `CN(C)CCC=C1c2ccccc2CCc2ccccc21.Cl` [Amitriptyline (hydrochloride)], for which the Synergistic lethal concentrations under setting [1] stood at 100 µM. As for `CCOC(=O)C1=C(COCCN)NC(C)=C(C(=O)OC)C1c1ccccc1Cl.O=C(O)/C=C\C(=O)O` (centres unmarked) [Amlodipine (maleate)], the Synergistic lethal concentrations under setting [1] is 100 µM. On to `CCOC(=O)C1=C(COCCN)NC(C)=C(C(=O)OC)C1c1ccccc1Cl` (centres unmarked) [Amlodipine], for which the Synergistic lethal concentrations under setting [1] is 100 µM. In the case of `CCC(C)(C)c1ccc(CC(C)CN2C[C@@H](C)O[C@@H](C)C2)cc1.Cl` (some centres unmarked) [Amorolfine (hydrochloride)], the Synergistic lethal concentrations under setting [1] amounted to 100 µM.

As for `Clc1ccc2c(c1)C(N1CCNCC1)=Nc1ccccc1O2` [Amoxapine], the Synergistic lethal concentrations under setting [1] came out at 100 µM. Turning to `CN(C)N(C)C(=O)[C@@]1(Cc2ccccc2)CCCN(C(=O)[C@@H](Cc2c[nH]c3ccccc23)NC(=O)C(C)(C)N)C1.Cl` [Anamorelin (hydrochloride)], the Synergistic lethal concentrations under setting [1] is 100 µM. As to `CNCC[C@@H](Oc1ccccc1C)c1ccccc1.Cl` [Atomoxetine (hydrochloride)], the Synergistic lethal concentrations under setting [1] is 100 µM. Turning to `CN1[C@@H]2CC[C@H]1C[C@@H](OC(c1ccccc1)c1ccccc1)C2.CS(=O)(=O)O` [Benztropine (mesylate)], under setting [1], the Synergistic lethal concentrations stood at 100 µM. For `CCN1CCN(c2cc(-c3ccc(F)cc3)c3c(n2)CCCCCC3)CC1` [Blonanserin], the Synergistic lethal concentrations under setting [1] was 50 µM.

In the case of `COc1cc(Nc2c(C#N)cnc3cc(OCCCN4CCN(C)CC4)c(OC)cc23)c(Cl)cc1Cl` [Bosutinib], under setting [1], the Synergistic lethal concentrations turned out to be 25 µM. Still for that read-out and setting: with `CCCCOc1ccc(CC(=O)NO)cc1` [Bufexamac] the figure was 100 µM. With `Cc1ccc([C@@H]2O[C@H](CO)[C@@H](O)[C@H](O)[C@H]2O)cc1Cc1ccc(-c2ccc(F)cc2)s1.O` [Canagliflozin (hemihydrate)], the Synergistic lethal concentrations under setting [1] amounted to 100 µM.

In the case of `Cc1ccc([C@@H]2O[C@H](CO)[C@@H](O)[C@H](O)[C@H]2O)cc1Cc1ccc(-c2ccc(F)cc2)s1` [Canagliflozin], under setting [1], the Synergistic lethal concentrations was 100 µM. As for `C[N+](C)(CC(=O)Nc1ccccc1)CC(=O)Nc1ccccc1.[Cl-]` [Carcainium (chloride)], the Synergistic lethal concentrations under setting [1] stood at 100 µM. The same measure, in the same setting: in the case of `COc1ccccc1OCCNCC(O)COc1cccc2[nH]c3ccccc3c12` (centres unmarked) [Carvedilol] it was 100 µM; in that of `Cc1cc(Nc2ncc(Cl)c(Nc3ccccc3S(=O)(=O)C(C)C)n2)c(OC(C)C)cc1C1CCNCC1.Cl.Cl` [Ceritinib dihydrochloride], 12.5 µM; in that of `Cc1cc(Nc2ncc(Cl)c(Nc3ccccc3S(=O)(=O)C(C)C)n2)c(OC(C)C)cc1C1CCNCC1` [Ceritinib], 12.5 µM. As to `N=C(NCCCCCCNC(=N)NC(=N)Nc1ccc(Cl)cc1)NC(=N)Nc1ccc(Cl)cc1.O=C(O)[C@H](O)[C@@H](O)[C@H](O)[C@H](O)CO.O=C(O)[C@H](O)[C@@H](O)[C@H](O)[C@H](O)CO` [Chlorhexidine (digluconate)], the Synergistic lethal concentrations under setting [1] stood at 6.25 µM. The same measure, in the same setting: with `CN(C)CC/C=C1/c2ccccc2Sc2ccc(Cl)cc21` [Chlorprothixene] the figure was 100 µM; with `C[C@@H](NCCCc1cccc(C(F)(F)F)c1)c1cccc2ccccc12.Cl` [Cinacalcet (hydrochloride)], 100 µM; with `C[C@@H](NCCCc1cccc(C(F)(F)F)c1)c1cccc2ccccc12` [Cinacalcet], 100 µM. As for `Oc1c(I)cc(Cl)c2cccnc12` [Clioquinol], the Synergistic lethal concentrations under setting [1] was found to be 12.5 µM. Regarding `CN1CCN(C2=Nc3cc(Cl)ccc3Nc3ccccc32)CC1` [Clozapine], under setting [1], the Synergistic lethal concentrations was determined as 100 µM. Turning to `CC(C)c1nc(CN(C)C(=O)N[C@@H](CCN2CCOCC2)C(=O)N[C@H](CC[C@H](Cc2ccccc2)NC(=O)OCc2cncs2)Cc2ccccc2)cs1` [Cobicistat], the Synergistic lethal concentrations under setting [1] was found to be 100 µM. On the same count and under the same terms, with `O=C(O)/C=C/C(=O)O.O=C(c1ccc(F)c(F)c1Nc1ccc(I)cc1F)N1CC(O)([C@@H]2CCCCN2)C1.O=C(c1ccc(F)c(F)c1Nc1ccc(I)cc1F)N1CC(O)([C@@H]2CCCCN2)C1` [Cobimetinib (hemifumarate)] the figure was 50 µM; with `O=C(c1ccc(F)c(F)c1Nc1ccc(I)cc1F)N1CC(O)([C@@H]2CCCCN2)C1` [Cobimetinib], 50 µM.

In the case of `Cc1nc2c([nH]1)-c1ccccc1N(C(=O)c1ccc(NC(=O)c3ccccc3-c3ccccc3)cc1)CC2.Cl` [Conivaptan (hydrochloride)], the Synergistic lethal concentrations under setting [1] was 100 µM. For `CC1CC(OC(=O)C(O)c2ccccc2)CC(C)(C)C1` (centres unmarked) [Cyclandelate], the Synergistic lethal concentrations under setting [1] came to 100 µM. For the molecule `CN(C)CCC=C1c2ccccc2C=Cc2ccccc21.Cl` [Cyclobenzaprine (hydrochloride)], the Synergistic lethal concentrations under setting [1] is 100 µM. Turning to `CN1CCC(=C2c3ccccc3C=Cc3ccccc32)CC1.Cl` [Cyproheptadine (hydrochloride)], the Synergistic lethal concentrations under setting [1] is 50 µM.

As for `CCCCCCOC(=O)NC(=N)c1ccc(NCc2nc3cc(C(=O)N(CCC(=O)OCC)c4ccccn4)ccc3n2C)cc1.CS(=O)(=O)O` [Dabigatran etexilate (mesylate)], under setting [1], the Synergistic lethal concentrations was found to be 50 µM. Take `CCCCCCOC(=O)N=C(N)c1ccc(NCc2nc3cc(C(=O)N(CCC(=O)OCC)c4ccccn4)ccc3n2C)cc1` [Dabigatran etexilate]: under setting [1], the Synergistic lethal concentrations amounted to 6.25 µM. Regarding `COc1cc2ncnc(Nc3ccc(F)c(Cl)c3)c2cc1NC(=O)/C=C/CN1CCCCC1` [Dacomitinib], the Synergistic lethal concentrations under setting [1] was 100 µM. With `CN(C)[C@@H](CCOc1cccc2ccccc12)c1ccccc1.Cl` [Dapoxetine (hydrochloride)], under setting [1], the Synergistic lethal concentrations came to 50 µM. Turning to `Br.NC(=O)C(c1ccccc1)(c1ccccc1)[C@@H]1CCN(CCc2ccc3c(c2)CCO3)C1` [Darifenacin (hydrobromide)], the Synergistic lethal concentrations was 100 µM. With `CNCCCN1c2ccccc2CCc2ccccc21` [Desipramine hydrochloride], the Synergistic lethal concentrations under setting [1] was 100 µM.

Take `O=C(O)c1cc(-c2ccc(F)cc2F)ccc1O` [Diflunisal]: the Synergistic lethal concentrations under setting [1] was determined as 100 µM. Same read-out and setting: in the case of `CC(C)[C@@]1(NC(=O)[C@@H]2C[C@@H]3c4cccc5[nH]cc(c45)C[C@H]3N(C)C2)O[C@@]2(O)[C@@H]3CCCN3C(=O)[C@H](Cc3ccccc3)N2C1=O.CS(=O)(=O)O` [Dihydroergocristine (mesylate)] it was 100 µM.

As for `Cc1ccc2c(c1)[C@]13CCCC[C@@H]1[C@H](C2)N(C)CC3.O=P(O)(O)O` [Dimemorfan (phosphate)], under setting [1], the Synergistic lethal concentrations came to 100 µM. Turning to `OCCN(CCO)c1nc(N2CCCCC2)c2nc(N(CCO)CCO)nc(N3CCCCC3)c2n1` [Dipyridamole], the Synergistic lethal concentrations under setting [1] was 100 µM. With `CCN(CC)C(=S)SSC(=S)N(CC)CC` [Disulfiram], the Synergistic lethal concentrations under setting [1] was 100 µM.

Take `CCCCC(CC)COC(=O)CC(C(=O)OCC(CC)CCCC)S(=O)(=O)[O-].[Na+]` (centres unmarked) [Docusate (Sodium)]: under setting [1], the Synergistic lethal concentrations was 100 µM. Same read-out and setting: with `CCCCCCCCCCCC[N+](C)(C)CCOc1ccccc1.[Br-]` [Domiphen (bromide)] the figure was 0.1953 µM; with `O=c1[nH]c2ccccc2n1CCCN1CCC(n2c(=O)[nH]c3cc(Cl)ccc32)CC1` [Domperidone], 100 µM; with `CCCCc1oc2ccc(NS(C)(=O)=O)cc2c1C(=O)c1ccc(OCCCN(CCCC)CCCC)cc1.Cl` [Dronedarone (Hydrochloride)], 100 µM.

For `CCCCc1oc2ccc(NS(C)(=O)=O)cc2c1C(=O)c1ccc(OCCCN(CCCC)CCCC)cc1` [Dronedarone], under setting [1], the Synergistic lethal concentrations is 100 µM. Same read-out and setting: in the case of `O=C(CCCN1CC=C(n2c(=O)[nH]c3ccccc32)CC1)c1ccc(F)cc1` [Droperidol] it was 100 µM. In the case of `CNCC[C@H](Oc1cccc2ccccc12)c1cccs1.Cl` [Duloxetine (hydrochloride)], the Synergistic lethal concentrations was found to be 50 µM. Turning to `CN1CCN(c2ccc(C(=O)Nc3n[nH]c4ccc(Cc5cc(F)cc(F)c5)cc34)c(NC3CCOCC3)c2)CC1` [Entrectinib], the Synergistic lethal concentrations under setting [1] came to 50 µM.

For the origin of these results see article PMC11200976, “Pitavastatin Calcium Confers Fungicidal Properties to Fluconazole by Inhibiting Ubiquinone Biosynthesis and Generating Reactive Oxygen Species” (Antioxidants, 2024).
